For series [1], the system named is breast cancers in postmenopausal patients. The settings on record: human, in vivo; cited from earlier work.
A further series has as its system normal male rats. The series can be described thus: In vivo studies in normal male rats: hormone levels. Set-up: species or system rat. The source says:
(§1) Studies in normal male rats have been carried out with 4-pregnen-3-one-20β-carboxaldehyde (I-16) (Li et al., 1992) and with its 20-carboxaldoxime (I-23)(Li et al., 1995).

Series [2] concerns LNCaP human prostatic cancer cell line. The series can be described thus: Androgen-dependent growth of LNCaP cells. The method, then:
The ability of various inhibitors to reverse the stimulatory effect of testosterone on the growth of the LNCaP human prostatic cancer cell line was tested by comparing cell number in wells treated for 9 days with either drug vehicle only (control), 0.1 nM testosterone only, or 0.1 nM testosterone with inhibitor at 0.3, 1, 2.5, or 5 μM.

The target in the next series is rat 17α-hydroxylase (Rattus norvegicus, UniProt P11715). The series can be described thus: Inhibition kinetics of rat 17α-hydroxylase, progesterone substrate. The format is biochemical.
rat 17α-hydroxylase, sequence (P11715 whole entry): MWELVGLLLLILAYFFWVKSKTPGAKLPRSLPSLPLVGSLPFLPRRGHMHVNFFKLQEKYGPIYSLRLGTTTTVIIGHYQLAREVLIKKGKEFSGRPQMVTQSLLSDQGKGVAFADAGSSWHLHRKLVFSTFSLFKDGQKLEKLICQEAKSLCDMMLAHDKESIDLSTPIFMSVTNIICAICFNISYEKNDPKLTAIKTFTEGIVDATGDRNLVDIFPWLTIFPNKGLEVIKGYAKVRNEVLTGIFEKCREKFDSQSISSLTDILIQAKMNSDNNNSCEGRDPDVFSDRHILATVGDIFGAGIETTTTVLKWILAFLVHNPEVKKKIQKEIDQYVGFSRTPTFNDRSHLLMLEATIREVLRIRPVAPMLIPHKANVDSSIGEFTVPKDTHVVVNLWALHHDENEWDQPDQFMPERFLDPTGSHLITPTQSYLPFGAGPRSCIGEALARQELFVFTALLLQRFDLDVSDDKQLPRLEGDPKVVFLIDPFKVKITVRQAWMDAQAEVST
From the text: as §1

The target in series [3] is T1, Human Prostatic 5α-Reductase (Homo sapiens, UniProt P31213).
T1 sequence (P31213 1-254): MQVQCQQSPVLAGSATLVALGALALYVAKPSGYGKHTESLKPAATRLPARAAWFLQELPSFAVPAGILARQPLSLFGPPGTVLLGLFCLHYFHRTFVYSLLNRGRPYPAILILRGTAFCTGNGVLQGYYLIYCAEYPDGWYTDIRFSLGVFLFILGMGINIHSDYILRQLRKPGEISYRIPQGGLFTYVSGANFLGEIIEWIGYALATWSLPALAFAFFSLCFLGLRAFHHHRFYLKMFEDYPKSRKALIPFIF
As to the kind of experiment: biochemical.
Description: (§2) The 5α-reductase assay is performed by incubating human prostatic microsomes (approx. 0.6 mg protein in 0.5 ml phosphate buffer) with [7-^3 H]testosterone (10 mM. 6×10^5 dpm) with a NADPH generating system (NADP 0.65 mM; glucose-6-phosphate 7.1 mM; glucose-6-phosphate dehydrogenase 2.5 IU in 100 μl phosphate buffer) and candidate inhibitors at concentrations of 10 nM and 100 nM under oxygen for 30 min at 37° C. […] The steroids are extracted with ether and separated by chromatography on TLC (chloroform:ether 80:20). […] The steroids are scraped from the plate and radioactivity measured.

Series [4] has as its target T1, Human Prostatic 5α-Reductase. The series can be described thus: Inhibition of human prostatic 5α-reductase (prostatic microsomes, [3H]testosterone).
Description: as §2
In another series the target is rat C17,20-lyase (Rattus norvegicus, UniProt P11715). As to the kind of experiment: Inhibition kinetics of rat C17,20-lyase, 17α-hydroxyprogesterone substrate. The format is biochemical. To be noted: 17α-hydroxyprogesterone as substrate; vs. Km 76 nM.
rat C17,20-lyase, sequence (P11715 whole entry): as the sequence (P11715 whole entry) above
From the text: as §1

In series [5] the test system is mutant AR which is expressed in LNCaP cells. The series can be described thus: Androgen receptor-mediated gene transcription, mutant AR of LNCaP cells (luciferase, CV1 cells). Format: cell-based, human.
In series [6] the target is human androgen receptor (AR) (Homo sapiens, UniProt P10275). The series can be described thus: Androgen receptor-mediated gene transcription, wild-type AR (luciferase, CV1 cells). The settings on record: against DHT stimulation. Format: cell-based.
human androgen receptor (AR), sequence (P10275 whole entry): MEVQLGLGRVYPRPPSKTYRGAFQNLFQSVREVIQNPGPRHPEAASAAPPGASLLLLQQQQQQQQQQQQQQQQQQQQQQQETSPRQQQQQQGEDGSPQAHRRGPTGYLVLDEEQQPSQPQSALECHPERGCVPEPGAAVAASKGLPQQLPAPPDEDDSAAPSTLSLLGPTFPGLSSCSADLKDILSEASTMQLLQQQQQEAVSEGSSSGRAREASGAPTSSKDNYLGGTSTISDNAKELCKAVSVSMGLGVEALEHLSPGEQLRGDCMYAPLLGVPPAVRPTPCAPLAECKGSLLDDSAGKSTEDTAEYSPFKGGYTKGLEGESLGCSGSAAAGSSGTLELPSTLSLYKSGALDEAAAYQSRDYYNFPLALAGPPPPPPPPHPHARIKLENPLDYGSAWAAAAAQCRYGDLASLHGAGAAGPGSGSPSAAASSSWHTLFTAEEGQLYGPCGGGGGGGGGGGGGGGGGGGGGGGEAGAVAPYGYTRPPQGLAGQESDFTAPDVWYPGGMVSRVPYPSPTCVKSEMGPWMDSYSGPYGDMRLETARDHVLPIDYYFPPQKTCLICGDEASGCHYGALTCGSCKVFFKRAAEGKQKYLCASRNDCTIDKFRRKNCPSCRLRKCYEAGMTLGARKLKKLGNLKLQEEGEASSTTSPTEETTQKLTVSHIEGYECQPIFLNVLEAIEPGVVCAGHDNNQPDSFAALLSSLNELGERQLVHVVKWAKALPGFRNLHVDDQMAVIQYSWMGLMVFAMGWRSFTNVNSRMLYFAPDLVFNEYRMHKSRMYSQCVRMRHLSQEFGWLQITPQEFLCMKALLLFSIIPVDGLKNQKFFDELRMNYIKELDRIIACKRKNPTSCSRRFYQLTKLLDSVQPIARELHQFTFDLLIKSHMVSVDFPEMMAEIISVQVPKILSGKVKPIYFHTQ
Series [7] deals with rat 17α-hydroxylase/C17,20-lyase. As to the kind of experiment: Inhibition of rat 17α-hydroxylase/C17,20-lyase. The format is biochemical.
From the text: as §1

Series [8] deals with patients with prostatic cancer. The settings on record: combined with GnRH or orchidectomy vs GnRH agonist or orchidectomy alone; cited from earlier work.
The subject of series [9] is human prostatic tissue (BPH or prostate cancer). As to the kind of experiment: Prostate tissue in histoculture, DNA synthesis ([3H]-thymidine uptake). To be noted: inhibitor 1 μM; testosterone 1 μM; FIG. 1. The method, then: We recently developed a histoculture method to evaluate the growth inhibiting properties of the compounds on human prostatic tissue. […] The tissue samples were then incubated for 3 days in fresh medium/treatment containing 2 μCi/ml [^3 H]-thymidine. Tissue was then digested and DNA extracted. For each sample, [^3 H]-thymidine uptake was normalized to DNA content. […] This finding is consistent with the compound acting as an antiandrogen. None of the compounds produced an independent effect on DNA synthesis in the absence of added androgens.

Setting [10] is: 50 mg/kg/day sc, 21 days, vs control.
Setting [11] is: 50 mg/kg/day sc, 21 days, vs vehicle.

Take `C[C@]12CCC(=O)C(O)=C1CC[C@@H]1[C@@H]2CC[C@]2(C)C(=O)CC[C@@H]12` [Compound 4-OHA, 4-hydroxyandrostene-3,17-dione]: the “side effects (in words)” value in series [1] was “without significant side effects”.
`C[C@H](C=NO)[C@H]1CC[C@H]2[C@@H]3CCC4=CC(=O)CC[C@]4(C)[C@H]3CC[C@]12C` [Compound I-23, 3-oxo-4-pregnene-20β-carboxaldehyde oxime]: in the series with normal male rats (setting [10]), the “decrease of prostatic DHT” value is 44%, the “decrease of prostatic testosterone” value is on record as 60% and the “serum LH concentration (in words)” value is reported as “unchanged”. In the series on normal male rats (setting [11]), the “reduction of serum testosterone” value is 65% and the “reduction of testicular testosterone” value is 59%. Moreover, the “reduction of testosterone and DHT levels in serum, testicular and prostatic tissues (in words)” value with normal male rats (rat) is “significantly reducing testosterone and DHT levels”. In addition, the “reversal of DHT-stimulated LNCaP growth (in words)” value in [2] (0.03 nM DHT) is given as “stimulation of growth above the level produced by DHT”. In addition, the “stimulation of LNCaP cell proliferation (in words)” value in series [2] (0.1 nM testosterone, hydroxyflutamide 0.3-1 μM) is on record as “stimulated cell proliferation”. The affinity on rat 17α-hydroxylase, expressed as Ki, was 0.074 µM. Further, in series [3], the Ki is 0.0014 µM. Moreover, in series [4] (IC50 5α-reductase, Table 2), the IC50 is 0.106 µM. Besides, the “inhibition of 5α-reductase (in words)” value in series [4] (NI = no inhibition) is recorded as “potent inhibition of 5α-reductase”. For the same molecule, the inhibition at 0.01 µM in series [4] (read-out: % Inhibition of 5α-reductase, [I] 10 nM) is 14.7%. Also, the inhibition at 0.1 µM in series [4] (read-out: % Inhibition of 5α-reductase, [I] 100 nM) came to 85.8%. This molecule came in with an inhibition constant (Ki) at rat C17,20-lyase of 0.018 µM. Besides, the “agonism/antagonism at mutant AR of LNCaP cells (in words)” value in [5] was “agonists”. Also, in [6], the “antagonism of wild-type AR (in words)” value is on record as “dose-dependent antagonism”. Further, the “inhibition of rat 17α-hydroxylase/C17,20-lyase (in words)” value in [7] is recorded as “inhibit rat 17α-hydroxylase/C17,20 -lyase”.
Regarding `CC(C)C(=O)Nc1ccc([N+](=O)[O-])c(C(F)(F)F)c1` [flutamide, reference compound], the “progression-free survival (in words)” value in [8] was “increased progression-free survival time”. Moreover, the “reversal of testosterone-stimulated DNA synthesis (in words), 1 μM” value in series [9] is “almost complete reversal”.

The values above are taken from patent publication US5994334A, “Androgen synthesis inhibitors” (priority 1997, dated 1999).
